Measurements reported in US20260109707A1, “HETEROBIFUNCTIONAL COMPOUNDS AND METHODS OF TREATING DISEASE” (Halda Therapeutics OpCo. Inc., priority 2022, published 2026).
Read-outs that look alike come from different tables or passages of the source.

Experiments:
[1] = tested on: T-Rex 293 cell line SC3 cells lacking increased expression of androgen receptor protein; assay: Cellular growth inhibition assay, T-Rex 293 SC3 cells without doxycycline (CellTiter-Glo, 72 hours); format: cell-based; details: T-Rex 293 cell line SC3 cells not exposed to doxycycline (lacking increased androgen receptor expression)
Method in brief: (§1)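 Growth inhibition is measured in an inducible AR-expressing T-Rex 293 clone, SC3, cultured with or without 10 ng/mL doxycycline in hormone-depleted medium. Test compounds are applied for 72 hours. GI50 values derive from CellTiter-Glo 2.0 signal fitted by four-parameter regression.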

[2] = tested on: T-Rex 293 cell line SC3 cells having increased expression of androgen receptor protein due to exposure to doxycycline; assay: Cellular growth inhibition assay, T-Rex 293 SC3 cells with doxycycline (CellTiter-Glo, 72 hours); format: cell-based; details: T-Rex 293 SC3 cells with increased androgen receptor expression due to doxycycline (10 ng/mL)
Method in brief: as §1

[3] = tested on: VCaP cells; assay: Cellular growth inhibition assay for VCaP cells (CellTiter-Glo, 72 hours); format: cell-based, human
Method in brief: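 Luminescent viability signal after 72 h of compound exposure gave GI50 values by four-parameter nonlinear regression. Compounds were added in 0.5% DMSO to cells plated 24 h earlier at 5000/well in DMEM containing 10% FBS.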

Row | SMILES | GI50 ([3]; Homo sapiens, VCaP, 72 h) [nM] | GI50 [3] [nM] | GI50 ([1]; 72 h) [nM] | GI50 ([2]; 72 h) [nM] | GI50 [1] [nM] | GI50 [2] [nM]
1 | C#Cc1ccc(O[C@H]2CC[C@H](NC(=O)c3ccc(N4CCC(C5CN(c6ccc(C7=NC8(CC8)c8nnc(C)n8-c8sc(C)c(C)c87)nc6)C5)CC4)nn3)CC2)cc1Cl [I-516] | > 3000 | – | > 3000 | < 500 | – | –
2 | CC[C@@H]1N=C(c2ccc(N3CCC4(CC3)CCN(c3ccc(C(=O)N[C@H]5CC[C@H](Oc6ccc(C#N)c(Cl)c6)CC5)nn3)C4)cc2)c2c(sc(C)c2C)-n2c(C)nnc21 [I-530] | > 3000 | – | < 500 | < 500 | – | –
3 | CC[C@@H]1N=C(c2ccc(C#CC3CC4(C3)CN(c3ccc(C(=O)N[C@H]5CC[C@H](Oc6ccc(C#N)c(Cl)c6)CC5)nn3)C4)cc2)c2c(sc(C)c2C)-n2c(C)nnc21 [I-531] | < 500 | – | < 500 | < 500 | – | –
4 | Cc1sc2c(c1C)C(c1ccc(C3CCC4(CC3)CCN(c3ccc(C(=O)N[C@H]5CC[C@H](Oc6ccc(C#N)c(Cl)c6)CC5)nn3)C4)nc1)=N[C@@H](C)c1nnc(C)n1-2 (stereo partly drawn) [I-533] | – | < 500 | < 500 | < 500 | – | –
5 | Cc1sc2c(c1C)C(c1ccc(C3CCC4(CC3)CCN(c3ccc(C(=O)N[C@H]5CC[C@H](Oc6ccc(C#N)c(Cl)c6)CC5)nn3)C4)nc1)=N[C@@H](C)c1nnc(C)n1-2 (stereo partly drawn) [I-534] | – | > 3000 | – | – | < 500 | < 500
6 | Cc1sc2c(c1C)C(c1ccc(OC3CCC4(C3)CN(c3ccc(C(=O)N[C@H]5CC[C@H](Oc6ccc(C#N)c(Cl)c6)CC5)nn3)CCO4)cc1)=N[C@@H](C)c1nnc(C)n1-2 (stereo partly drawn) [I-539] | – | 500 to 1500 | – | < 500 | > 3000 | –
7 | Cc1sc2c(c1C)C(c1ccc(OC3CC(CC4CCN(c5ccc(C(=O)N[C@H]6CC[C@H](Oc7ccc(C#N)c(Cl)c7)CC6)nn5)CC4)C3)cc1)=N[C@@H](C)c1nnc(C)n1-2 (stereo partly drawn) [I-543] | < 500 | – | > 3000 | < 500 | – | –
8 | Cc1sc2c(c1C)C(c1ccc(OC3CC(CC4CCN(c5ccc(C(=O)N[C@H]6CC[C@H](Oc7ccc(C#N)c(Cl)c7)CC6)nn5)CC4)C3)cc1)=N[C@@H](C)c1nnc(C)n1-2 (stereo partly drawn) [I-544] | – | < 500 | – | – | > 3000 | < 500
9 | Cc1sc2c(c1C)C(c1ccc(N3CC4(CC(C#Cc5ccc(C(=O)N[C@H]6CC[C@H](Oc7ccc(C#N)c(Cl)c7)CC6)nn5)C4)C3)cc1)=N[C@@H](Cc1ncco1)c1nnc(C)n1-2 [I-545] | < 500 | – | < 500 | < 500 | – | –
10 | Cc1sc2c(c1C)C(c1ccc(C#CC3CCC(Cc4ccc(C(=O)N[C@H]5CC[C@H](Oc6ccc(C#N)c(Cl)c6)CC5)nn4)CC3)cc1)=N[C@@H](Cc1ncco1)c1nnc(C)n1-2 (stereo partly drawn) [I-546] | 500 to 1500 | – | < 500 | < 500 | – | –
11 | Cc1sc2c(c1C)C(c1ccc(CCC3CC4(CCCN(c5ccc(C(=O)N[C@H]6CC[C@H](Oc7ccc(C#N)c(Cl)c7)CC6)nn5)C4)C3)cc1)=NCc1nnc(C)n1-2 (stereo partly drawn) [I-548] | 1500 to 3000 | – | < 500 | < 500 | – | –
12 | Cc1sc2c(c1C)C(c1ccc(N3CCC4CN(c5ccc(C(=O)N[C@H]6CC[C@H](Oc7ccc(C#N)c(Cl)c7)CC6)nn5)CCC4C3)cc1)=NC1(CC1)c1nnc(C)n1-2 (stereo partly drawn) [I-549] | – | > 3000 | – | < 500 | < 500 | –
13 | Cc1sc2c(c1C)C(c1ccc(N3CC(C4CCN(c5ccc(C(=O)N[C@H]6CC[C@H](Oc7ccc(C#N)c(Cl)c7)CC6)nn5)C4)C3)cc1)=NC1(CC1)c1nnc(C)n1-2 (stereo partly drawn) [I-550] | < 500 | – | – | < 500 | < 500 | –
14 | Cc1sc2c(c1C)C(c1ccc(N3CC(C4CCN(c5ccc(C(=O)N[C@H]6CC[C@H](Oc7ccc(C#N)c(Cl)c7)CC6)nn5)C4)C3)cc1)=NC1(CC1)c1nnc(C)n1-2 (stereo partly drawn) [I-551] | – | < 500 | – | – | > 3000 | < 500
15 | Cc1sc2c(c1C)C(c1ccc(C3CN(C4CCN(c5ccc(C(=O)N[C@H]6CC[C@H](Oc7ccc(C#N)c(Cl)c7)CC6)nn5)CC4)C3)cc1)=NC1(CC1)c1nnc(C)n1-2 [I-552] | > 3000 | – | 1500 to 3000 | < 500 | – | –
16 | Cc1sc2c(c1C)C(c1ccc(C3CCC4(CCN(c5ccc(C(=O)N[C@H]6CC[C@H](Oc7ccc(C#N)c(Cl)c7)CC6)nn5)CC4)C3)nc1)=N[C@@H](C)c1nnc(C)n1-2 (stereo partly drawn) [I-553] | – | < 500 | – | < 500 | < 500 | –

Now from value to molecule, other results behind:

Row | GI50 ([3]; Homo sapiens, VCaP, 72 h) [nM] | GI50 [3] [nM] | SMILES | GI50 ([1]; 72 h) [nM] | GI50 ([2]; 72 h) [nM] | GI50 [1] [nM] | GI50 [2] [nM]
17 | – | > 3000 | Cc1sc2c(c1C)C(c1ccc(C3CCC4(CC3)CCN(c3ccc(C(=O)N[C@H]5CC[C@H](Oc6ccc(C#N)c(Cl)c6)CC5)nn3)C4)cc1)=NC1(CC1)c1nnc(C)n1-2 (stereo partly drawn) [I-517] | > 3000 | < 500 | – | –
18 | – | < 500 | Cc1sc2c(c1C)C(c1ccc(C3CCC4(CC3)CCN(c3ccc(C(=O)N[C@H]5CC[C@H](Oc6ccc(C#N)c(Cl)c6)CC5)nn3)C4)cc1)=NC1(CC1)c1nnc(C)n1-2 (stereo partly drawn) [I-518] | – | – | > 3000 | < 500
19 | < 500 | – | Cc1sc2c(c1C)C(c1ccc(C3CCC4(CCN(c5ccc(C(=O)N[C@H]6CC[C@H](Oc7ccc(C#N)c(Cl)c7)CC6)nn5)CC4)C3)cc1)=NC1(CC1)c1nnc(C)n1-2 (stereo partly drawn) [I-519] | > 3000 | < 500 | – | –
20 | – | < 500 | Cc1sc2c(c1C)C(c1ccc(C3CCC4(CCN(c5ccc(C(=O)N[C@H]6CC[C@H](Oc7ccc(C#N)c(Cl)c7)CC6)nn5)CC4)C3)cc1)=NC1(CC1)c1nnc(C)n1-2 (stereo partly drawn) [I-520] | – | – | > 3000 | < 500
21 | – | 1500 to 3000 | Cc1sc2c(c1C)C(c1ccc(N3CCC4(CCN(c5ccc(C(=O)N[C@H]6CC[C@H](Oc7ccc(C#N)c(Cl)c7)CC6)nn5)C4)C3)cc1)=NC1(CC1)c1nnc(C)n1-2 (stereo partly drawn) [I-521] | < 500 | < 500 | – | –
22 | – | 500 to 1500 | Cc1sc2c(c1C)C(c1ccc(N3CCC4(CCN(c5ccc(C(=O)N[C@H]6CC[C@H](Oc7ccc(C#N)c(Cl)c7)CC6)nn5)C4)C3)cc1)=NC1(CC1)c1nnc(C)n1-2 (stereo partly drawn) [I-522] | – | – | < 500 | < 500
23 | – | > 3000 | Cc1sc2c(c1C)C(c1ccc(OC3CCC4(CCCN(c5ccc(C(=O)N[C@H]6CC[C@H](Oc7ccc(C#N)c(Cl)c7)CC6)nn5)C4)C3)cc1)=NC1(CC1)c1nnc(C)n1-2 (stereo partly drawn) [I-523] | – | < 500 | > 3000 | –
24 | – | > 3000 | Cc1sc2c(c1C)C(c1ccc(OC3CCC4(CCCN(c5ccc(C(=O)N[C@H]6CC[C@H](Oc7ccc(C#N)c(Cl)c7)CC6)nn5)C4)C3)cc1)=NC1(CC1)c1nnc(C)n1-2 (stereo partly drawn) [I-524] | – | – | > 3000 | < 500
25 | – | < 500 | Cc1sc2c(c1C)C(c1ccc(OC3CCC4(CCCN(c5ccc(C(=O)N[C@H]6CC[C@H](Oc7ccc(C#N)c(Cl)c7)CC6)nn5)C4)C3)cc1)=NC1(CC1)c1nnc(C)n1-2 (stereo partly drawn) [I-525] | – | – | > 3000 | < 500
26 | – | < 500 | Cc1sc2c(c1C)C(c1ccc(OC3CCC4(CCCN(c5ccc(C(=O)N[C@H]6CC[C@H](Oc7ccc(C#N)c(Cl)c7)CC6)nn5)C4)C3)cc1)=NC1(CC1)c1nnc(C)n1-2 (stereo partly drawn) [I-526] | – | – | 500 to 1500 | < 500
27 | 1500 to 3000 | – | Cc1sc2c(c1C)C(c1ccc(CC3CCC4(C3)CN(c3ccc(C(=O)N[C@H]5CC[C@H](Oc6ccc(C#N)c(Cl)c6)CC5)nn3)CCO4)cc1)=NC1(CC1)c1nnc(C)n1-2 (stereo partly drawn) [I-527] | > 3000 | < 500 | – | –
28 | < 500 | – | Cc1sc2c(c1C)C(c1ccc(OC3CC(CC4CCN(c5ccc(C(=O)N[C@H]6CC[C@H](Oc7ccc(C#N)c(Cl)c7)CC6)nn5)CC4)C3)cc1)=NC1(CC1)c1nnc(C)n1-2 (stereo partly drawn) [I-528] | > 3000 | < 500 | – | –
29 | – | < 500 | Cc1sc2c(c1C)C(c1ccc(OC3CC(CC4CCN(c5ccc(C(=O)N[C@H]6CC[C@H](Oc7ccc(C#N)c(Cl)c7)CC6)nn5)CC4)C3)cc1)=NC1(CC1)c1nnc(C)n1-2 (stereo partly drawn) [I-529] | – | – | > 3000 | < 500
30 | < 500 | – | Cc1sc2c(c1C)C(c1ccc(C3CCC4(CC3)CCN(c3ccc(C(=O)N[C@H]5CC[C@H](Oc6ccc(C#N)c(Cl)c6)CC5)nn3)CC4)cc1)=NC1(CC1)c1nnc(C)n1-2 [I-532] | > 3000 | < 500 | – | –
31 | – | > 3000 | Cc1sc2c(c1C)C(c1ccc(OC3CCC4(CCCN(c5ccc(C(=O)N[C@H]6CC[C@H](Oc7ccc(C#N)c(Cl)c7)CC6)nn5)C4)C3)cc1)=N[C@@H](C)c1nnc(C)n1-2 (stereo partly drawn) [I-536] | > 3000 | < 500 | – | –
32 | – | > 3000 | Cc1sc2c(c1C)C(c1ccc(OC3CCC4(CCCN(c5ccc(C(=O)N[C@H]6CC[C@H](Oc7ccc(C#N)c(Cl)c7)CC6)nn5)C4)C3)cc1)=N[C@@H](C)c1nnc(C)n1-2 (stereo partly drawn) [I-537] | – | – | > 3000 | < 500
33 | – | < 500 | Cc1sc2c(c1C)C(c1ccc(OC3CCC4(CCCN(c5ccc(C(=O)N[C@H]6CC[C@H](Oc7ccc(C#N)c(Cl)c7)CC6)nn5)C4)C3)cc1)=N[C@@H](C)c1nnc(C)n1-2 (stereo partly drawn) [I-538] | – | – | > 3000 | < 500
34 | – | 1500 to 3000 | Cc1sc2c(c1C)C(c1ccc(OC3CCC4(C3)CN(c3ccc(C(=O)N[C@H]5CC[C@H](Oc6ccc(C#N)c(Cl)c6)CC5)nn3)CCO4)cc1)=N[C@@H](C)c1nnc(C)n1-2 (stereo partly drawn) [I-540] | – | – | < 500 | < 500
35 | – | > 3000 | Cc1sc2c(c1C)C(c1ccc(OC3CCC4(C3)CN(c3ccc(C(=O)N[C@H]5CC[C@H](Oc6ccc(C#N)c(Cl)c6)CC5)nn3)CCO4)cc1)=N[C@@H](C)c1nnc(C)n1-2 (stereo partly drawn) [I-541] | – | – | < 500 | < 500
36 | – | 1500 to 3000 | Cc1sc2c(c1C)C(c1ccc(OC3CCC4(C3)CN(c3ccc(C(=O)N[C@H]5CC[C@H](Oc6ccc(C#N)c(Cl)c6)CC5)nn3)CCO4)cc1)=N[C@@H](C)c1nnc(C)n1-2 (stereo partly drawn) [I-542] | – | – | < 500 | < 500
